Where two headings read alike, the source gives them in different places. Each block holds one molecule with its values, some of them ahead of it.
What was measured:
[1] = Absorbance maximum and extinction coefficient; assay type: physicochemical; details: for ε (extinction coefficient): pH 7.2, at 480 nm
Description: First, the extinction coefficient of compounds 1-9 and 14 was determined. Stock solutions (5×10^-3 M) of each dye were made by dissolving the dye in two equivalents of 0.1 N NaOH and making up the volume with carbonate/bicarbonate buffer (0.16, 0.34 M, pH 9.5). The solution was diluted ([…]) in additional buffer (final pH 9.5-10) and the absorbance spectrum measured. A stock solution (1.2×10^-3 M) of Vita Blue was prepared in DMSO, diluted into citrate buffer (0.1 M, pH 5 2) to give a final concentration of 1.6×10^-5 M and the absorbance spectrum measured. A stock solution (8.2×10^-3 M) of VBDB was prepared in DMSO and diluted into pyrophosphate buffer (0.1 M, pH 7.2) to give a final concentration of 8.1×10^-5 M and the absorbance spectrum measured on a Beckman model DU-6UV visible spectrophotometer.
(§1) Finally, the spectral characteristics of compounds 1-9 was determined. The extinction coefficients and quantum yields or compounds 1-9 were determined at pH 9.5. The extinction coefficient and quantum yield of monoprotonated Vita Blue was also determined at pH 5.2. The extinction coefficient and the quantum yield of VBDB were determined at pH 7.2.

[2] = Fluorescence emission maximum and quantum yield; assay type: physicochemical
Description: Second, quantum yields of compounds 1-9 and 14 were measured. Solutions (1×10^-6 M) of compounds 1-9 were prepared in carbonate/ bicarbonate buffer (pH 9.5). Fluorescence emission spectra were measured on a Perkin-Elmer MPF-2A fluorescence spectrophotometer in 3-mL disposable plastic cuvettes. The excitation wavelength was set 30 nm to the red of the maximum excitation wavelength and the emission spectra measured. The area under the emission spectrum was measured (F). The quantum yield (.PHI.) was determined using the following equation, F-kIo .PHI.εcb, where F is the fluorescence, k is a fluorimeter constant, Io is the light intensity at the exciting wavelength, ε is the extinction coefficient at the exciting wavelength, c is the concentration of the dye, and b is the pathlength of the cuvette. The value of k was determined for three different emission wavelength regions by using literature values of .PHI. and measuring the fluorescence of fluorescein (470-670 nm, .PHI.=0.92), eosin (500-700 nm, .PHI.=0.19) and allophycocyanin (Applied BioSystems, 600-800 nm, .PHI.=0.68). The value of Io was determined from a table that was generated by scanning the range of exciting wavelengths on the fluorescence spectrophotometer with the emission monochrometer open; a piece of white paper was placed in the sample holder to reflect the exciting light. The concentration of the dyes were 0.6-1.0 uM; this value in each case was below the concentration ([…]) required in order for the equation to be valid.
as §1

[3] = target: T1, pig liver esterase (E.C. 3.1.1.1) (Sus scrofa, UniProt Q29550); test: Enzymatic hydrolysis by esterase (Km, Lineweaver-Burk); assay type: biochemical
T1 sequence (Q29550 19-566): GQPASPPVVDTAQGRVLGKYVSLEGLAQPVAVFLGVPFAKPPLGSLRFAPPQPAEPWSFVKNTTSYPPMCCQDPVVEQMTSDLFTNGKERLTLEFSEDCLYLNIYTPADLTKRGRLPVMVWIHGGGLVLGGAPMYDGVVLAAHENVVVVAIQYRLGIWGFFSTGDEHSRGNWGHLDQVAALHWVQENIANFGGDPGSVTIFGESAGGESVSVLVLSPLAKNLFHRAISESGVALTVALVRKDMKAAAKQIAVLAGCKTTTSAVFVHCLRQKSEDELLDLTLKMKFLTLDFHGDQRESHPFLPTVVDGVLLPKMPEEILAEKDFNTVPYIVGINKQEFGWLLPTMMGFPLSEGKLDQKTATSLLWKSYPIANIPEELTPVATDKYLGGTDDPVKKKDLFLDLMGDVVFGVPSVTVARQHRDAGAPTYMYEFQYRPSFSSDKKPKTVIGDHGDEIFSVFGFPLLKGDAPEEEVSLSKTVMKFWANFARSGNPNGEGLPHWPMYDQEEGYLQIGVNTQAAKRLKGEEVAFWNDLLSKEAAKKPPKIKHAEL

[4] = Staining of lysed whole blood, fluorescence by flow cytometry; assay type: cell-based, human; details: human, white blood cells
Description: (§2) After characterizing the various xanthene dyes prepared in accordance with this invention, one of the dyes (VBDB) was used to stain cells. The ability of VBDB to stain cells was compared with BCECF-AM, a membrane permeable esterase substrate (Molecular Probes) and fluorescein diacetate (FDA). […] After incubation, the tube was centrifuged. This procedure specifically lyses red blood cells leaving the white cells intact and viable. The supernatant was removed and the white blood cells which remained were washed twice and resuspended in blood cell diluent (1 mL, Diagnostic Technology, Inc.). The cell concentration and the percentage of dead cells were ascertained by counting the cells manually using a fluorescent microscope and a hemacytometer; acridine orange and ethidium bromide were used to stain live and dead cells respectively.
(§3) Four samples of approximately 1.7×10^6 cells then were placed in polystyrene tubes. To each tube was added one of the following solutions (1 mL): FDA (1 uM) BCECF-AM (1 uM), VBDB (0.8 uM), or VBDB (8.0 uM). The dye solutions were prepared by diluting a stock solution of each dye (1-8 mM in DMSO) into blood cell diluent. The tubes were kept at room temperature for 30 minutes. The samples were washed three times and resuspended in blood cell diluent (1 mL).
(§4) A bandpass 530/30 emission filter was used for both FDA and BCECF-AM, while a bandpass 660/20 emission filter was used for VBDB. Data from 10,000 events were acquired from each of these samples immediately after staining, one hour after staining, and two hours after staining.
(§5) Referring to FIG. 2, VBDB, BCECF-AM and FDA were compared as vital dyes by staining lysed whole blood and examining the fluorescence by flow cytometry. […] Four samples of cells were incubated with BCECF AM (1 uM), FDA (1 uM) and VBDB (0.8 uM, 8.0 uM). The cells were analyzed immediately after staining (t=0), after one hour (t=1) and after two hours (t=2).
(§6) The data in FIG. 2 also was used to quantitate the "live" cells and the "dead" cells. […] It was assumed the live cells were those cells which retained the dye (the right peak) and that dead cells were those cells whose membranes had become leaky (the left peak). By setting the gate to the immediate left of the main peak, the "dead" cells to the left of the gate were counted.

human white blood cells = test: as above; assay type: cell-based
Description: as §2, §3, §4, §5, §6

Stability in water = details: pH 7
[5] = Membrane permeability of diacetates; details: diacetate esters
[6] = pH 7
[7] = not told

Molecule: CCCC(=O)Oc1ccc2c3c(ccc2c1)C1(OS(=O)(=O)c2ccccc21)c1ccc2cc(OC(=O)CCC)ccc2c1O3 [Compound 14, Vita Blue dibutyrate]
Abs Max ([1]; pH 7.2): 480 nm
ε (extinction coefficient) [1]: 5900 M⁻¹ cm⁻¹
ε (extinction coefficient) ([1]; listed as dibutyrate derivative of compound 9): 5900 M⁻¹ cm⁻¹
excitation maximum [2]: 480 nm
EM Max ([2]; pH 7.2): 552 nm
Quantum Yield ([2]; pH 7.2): 0.03
EM Max ([2]; pH 7.2, listed as dibutyrate derivative of compound 9): 550 nm
esterase substrate [3]: good substrate
specific activity ([3]; pH 8.0): 2.5 (ug substrate) (min)^-1 (mg enzyme)^-1
percentage of dead (leaky) cells at 0 h, 0.8 µM ([4]; 0.8 uM, t=0): 14%
percentage of dead (leaky) cells at 1 h, 0.8 µM ([4]; 0.8 uM, t=1 h): 18%
percentage of dead (leaky) cells at 2 h, 0.8 µM ([4]; 0.8 uM, t=2 h): 20%
percentage of dead (leaky) cells at 8 µM ([4]; 8 uM, second value, printed t=2): 17%
percentage of dead (leaky) cells at 0 h, 8 µM ([4]; 8 uM, t=0): 12%
percentage of dead (leaky) cells at 2 h, 8 µM ([4]; 8 uM, t=2 h): 22%
retention of initial fluorescence by stained cells over time (human white blood cells; 0.8 uM dye): maintained their initial fluorescence
coefficient of variation (CV) in the fluorescence histogram (human white blood cells; 0.8 uM, t=0): 39%
coefficient of variation (CV) in the fluorescence histogram (human white blood cells; 0.8 uM, t=1 h): 43%
coefficient of variation (CV) in the fluorescence histogram (human white blood cells; 0.8 uM, t=2 h): 46%
retention of initial fluorescence by stained cells over time (human white blood cells; 8 uM dye, after one hour): actually increased their fluorescence slightly after one hour
coefficient of variation (CV) in the fluorescence histogram (human white blood cells; 8 uM, t=0): 30%
coefficient of variation (CV) in the fluorescence histogram (human white blood cells; 8 uM, t=1 h): 35%
coefficient of variation (CV) in the fluorescence histogram (human white blood cells; 8 uM, t=2 h): 34%
number of leaky cells, comparison of BCECF and VBDB (human white blood cells; after two hours, higher VBDB concentration): the same number of "leaky" cells after two hours
deleterious effect on cells (human white blood cells; higher concentration (8 uM)): did not seem to be deleterious to the cells
stability in water (Stability in water): relatively stable in water at pH 7

esterase substrate [3]: esterase substrates
Molecule: CC(=O)Oc1ccc2c3c(ccc2c1)C1(OS(=O)(=O)c2ccccc21)c1ccc2cc(OC(C)=O)ccc2c1O3 [Diacetate ester of compound 9, Vita Blue diacetate]
membrane permeability [5]: neither diacetates were membrane permeable

Molecule: Sulfonefluorescein diacetate [Diacetate ester of compound 2]
esterase substrate [3]: esterase substrates
stability in water [6]: relatively stable in water at pH 7
membrane permeability [7]: neither diacetates were membrane permeable
